From PMC8704611, “Synthesis, Molecular Docking Analysis, and Biological Evaluations of Saccharide-Modified Sulfonamides as Carbonic Anhydrase IX Inhibitors” (International Journal of Molecular Sciences, 2021) come the findings set out here.

Like-named read-outs stand apart in the source and are kept apart here.

One experiment addresses hCA II (Homo sapiens, UniProt P00918). The experiment is described as follows: CA inhibition assay (hydrolysis of 4-nitrophenylacetate). Format: biochemical. To be noted: 4-NPA hydrolysis; three independent assays, relative errors 5–10%. The source says: (§1) Carbonic anhydrase has the ability to catalyse the hydrolysis of 4-NPA. […] More detailed operations and specific parameters are as reported earlier.

The target of the next experiment is hCA IX (Homo sapiens, UniProt Q16790). The description is as above. Format: biochemical. The note with it: 4-NPA hydrolysis; three independent assays, relative errors 5–10%.
Source text: as §1

Another experiment deals with hCA XII (Homo sapiens, UniProt O43570). Described as above. It is filed as biochemical. To be noted: 4-NPA hydrolysis; three independent assays, relative errors 5–10%.
hCA XII, sequence (O43570 25-354): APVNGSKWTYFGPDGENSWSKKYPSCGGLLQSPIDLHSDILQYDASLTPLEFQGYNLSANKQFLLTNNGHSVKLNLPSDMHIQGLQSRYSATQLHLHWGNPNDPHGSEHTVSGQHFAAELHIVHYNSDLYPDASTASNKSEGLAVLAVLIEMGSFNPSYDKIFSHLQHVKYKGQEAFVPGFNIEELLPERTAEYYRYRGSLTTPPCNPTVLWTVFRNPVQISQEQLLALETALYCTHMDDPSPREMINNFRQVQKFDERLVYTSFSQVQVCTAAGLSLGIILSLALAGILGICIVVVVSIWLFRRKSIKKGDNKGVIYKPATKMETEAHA
Source text: as §1

Experiment [1] has as its system HT-29 cells. The experiment is described as follows: CCK-8 cell viability assay. It is filed as cell-based. To be noted: for decrease in cell viability: HT-29, highest concentration of 400 μM; for viability at 400 µM: Homo sapiens, HT-29, 400 μM, 48 h. The method, then:
(§2) The CCK-8 assay was used to evaluate the cytotoxicity of compounds 16a, 16b, and 16e on the breast cancer cell line MDA-MB-231 and colon cancer cell line HT-29. MDA-MB-231 and HT-29 are tumour cells that have been reported to express CA IX. We cultivated them under normoxia and hypoxia respectively and then evaluated the effects of the compounds on tumour cell viability at different concentrations.
(§3) Cell viability was tested by CCK-8 assay. The MDA-MB-231, HT-29 and MG-63 cell lines were provided by KeyGEN BioTECH Ltd. (Nanjing, Jiangsu, China). The cancer cell suspension was prepared to 5.0 × 10^4 cells/mL. After adding 100 μL cell suspension into each well of 96-well plates, the 96-well plates were placed in the incubator at 37 °C and 5% CO2 for 24 h. The compounds were diluted to the required concentration with the medium, and 100 μL of the corresponding medium was added to each well. Meanwhile, the negative control group was set up. The plates were incubated in normoxia or hypoxia for 48 h. The CCK-8 solution (10 μL) was added to each well, and the cells were incubated for another 3 h. After removing the bubbles in each well, cell viability was assessed by measuring the absorbance at 450 nm wavelength using a microplate reader. The hypoxia atmosphere consisted of 0.5% O2, 5% CO2, and 94.5% N2. The normoxia atmosphere was air.

Experiment [2] deals with MDA-MB-231 cells. Nature of the experiment: CCK-8 cell viability assay. It is filed as cell-based. To be noted: Homo sapiens, MDA-MB-231, 400 μM, 48 h. The method, then:
as §2, §3
A general note: Tetrazolium dyes change colour on reduction, which living cells bring about.

For experiment [3], the system named is MDA-MB-231 cells. The experiment is described as follows: Measurement of extracellular pH. The note with it: for effect on extracellular pH: MDA-MB-231, 0.1 mM and 1.0 mM; for Extracellular pH, Hypoxic condition: hypoxia, control 6.84; for Extracellular pH, Normoxic condition: normoxia, control 7.06. Format: cell-based. As to the method: The main role of CA IX and XII in tumour development is to regulate the pH of the tumour growth microenvironment so that tumour cells are in a weakly acidic environment. Such an acidic environment is conducive to the growth of tumour cells and protects tumour cells from being killed by chemotherapeutics.
(§4) The changes in extracellular pH were evaluated according to previously published procedures. Cancer cells were grown in the medium containing 10% FBS and incubated in 6-well plates for 12 h. After removing the medium, we added fresh medium to the 6-well plates and incubated them for 48 h under hypoxia or normoxia. Then, we measured the pH of the culture medium immediately after collection. The tested compounds were dissolved in DMSO and diluted to the desired concentration. After the addition of tested compounds, the same procedure was carried out.

In experiment [4] the test system is HT-29 cells. The experiment is described as follows: Measurement of extracellular pH. It is filed as cell-based. The note with it: for effect on extracellular pH: HT-29, 0.1 mM and 1.0 mM; for Extracellular pH, Hypoxic condition: hypoxia, control 6.81; for Extracellular pH, Normoxic condition: normoxia, control 7.02. As to the method:
The main role of CA IX and XII in tumour development is to regulate the pH of the tumour growth microenvironment so that tumour cells are in a weakly acidic environment. Such an acidic environment is conducive to the growth of tumour cells and protects tumour cells from being killed by chemotherapeutics. We evaluated the effects of 0.1 mM and 1.0 mM of compounds 16a and 16b on the pH of the tumour cell growth environment under normoxia or hypoxia (detailed data is provided in the Tables S5 and S6 of supplementary information).
as §4

Experiment [5] deals with MDA-MB-231 cells. The experiment is described as follows: Cell migration (scratch wound) assay. It is filed as cell-based. The note with it: MDA-MB-231, 400 μM, hypoxia. The method, then:
Tumour cell migration is one of the basic biological characteristics of tumour cells. […] MDA-MB-231 was selected as the experimental cell line to explore the ability of 16a to reduce tumour cells migration under hypoxia.
MDA-MB-231 cells (1 × 10^5 cells/well) were cultured in 6-well plates and wounded by scratching with a pipette tip. The wounded cell monolayers were washed three times with PBS and incubated with serum-free medium.

A further experiment relates to MG-63 cells. The experiment is described as follows: CCK-8 cell viability assay. The note with it: for viability at 800 µM: Homo sapiens, MG-63, 800 μM, 48 h. It is filed as cell-based, human. As to the method:
The human osteosarcoma cell line MG-63 is a high-expressing cell line of CA IX and XII [24]. We selected compound 16b with the best activity in the above studies to study the cell viability inhibitory activity of MG-63 (detailed data is provided in the Table S4 of supplementary information).
as §3

[6] abbreviates: hypoxia, read-out: cell viability, Hypoxic condition (%).
Setting [7] is: normoxia, read-out: cell viability, Normoxic condition (%).

Consider `NS(=O)(=O)c1ccc(-n2cc(-c3ccc(NC(=O)CCC(=O)N[C@@H]4O[C@H](CO)[C@@H](O)[C@H](O)[C@H]4O)cc3)nn2)cc1` [Compound 16a, N^1-(4-(1-(4-sulfamoylphenyl)-1H-1,2,3-triazol-4-yl)phenyl)-N^4-((2R,3R,4S,5S,6R)-3,4,5-trihydroxy-6-(hydroxymethyl)tetrahydro-2H-pyran-2-yl)succinamide], for which the figures for the half-inhibitory concentration (IC50) against hCA II, at hCA IX and against hCA XII were 27.7 nM, 51.6 nM and 135 nM, respectively. In addition, the “decrease in cell viability” value in the experiment with HT-29 cells [1] is given as 20%. Also, the viability at 400 µM in the experiment on HT-29 cells [1] (setting [6]) turned out to be 82.6 ± 1.92%; in the experiment on HT-29 cells [1] (setting [7]) it was 83.3 ± 2.09%; with MDA-MB-231 cells [2] (setting [6]), 85.1 ± 1.68%; with MDA-MB-231 cells [2] (setting [7]), 88.9 ± 1.71%. The “effect on extracellular pH” value with MDA-MB-231 cells [3] and in the experiment with HT-29 cells [4] was “improve the extracellular pH” in each case. Also, the “Extracellular pH, Hypoxic condition” value with MDA-MB-231 cells [3] (MDA-MB-231, 0.1 mM) was found to be 6.9; in the experiment with MDA-MB-231 cells [3] (MDA-MB-231, 1.0 mM), 7.31; in the experiment on HT-29 cells [4] (HT-29, 0.1 mM), 6.88; in the experiment on HT-29 cells [4] (HT-29, 1.0 mM), 7.26. Further, the “Extracellular pH, Normoxic condition” value is on record as 7.04 with MDA-MB-231 cells [3] (MDA-MB-231, 0.1 mM); 7.21 in the experiment with MDA-MB-231 cells [3] (MDA-MB-231, 1.0 mM); 6.97 in the experiment on HT-29 cells [4] (HT-29, 0.1 mM); 7.13 with HT-29 cells [4] (HT-29, 1.0 mM). Moreover, the “effect on tumour cell migration” value in the experiment with MDA-MB-231 cells [5] (at 72 h) is listed as “could hardly be detected”; in the experiment with MDA-MB-231 cells [5] (first 24 h, vs blank group) it was “slight inhibitory effect”.

Regarding `CC(=O)Nc1nnc(S(N)(=O)=O)s1` [AZM, acetazolamide, reference compound], the viability at 400 µM is 89.53 ± 0.161% in the experiment on HT-29 cells [1] (setting [6]), 91.7 ± 2.59% in the experiment on HT-29 cells [1] (setting [7]), 85.2 ± 1.96% with MDA-MB-231 cells [2] (setting [6]) and 96.2 ± 2.28% in the experiment with MDA-MB-231 cells [2] (setting [7]). In addition, the viability at 800 µM in the experiment with MG-63 cells (setting [6]) was found to be 81.7 ± 1.17%; with MG-63 cells (setting [7]), 87.1 ± 1.94%. Besides, the “Extracellular pH, Hypoxic condition” value is 6.97 with MDA-MB-231 cells [3] (MDA-MB-231, 0.1 mM); 6.90 in the experiment on HT-29 cells [4] (HT-29, 0.1 mM); 7.28 in the experiment on HT-29 cells [4] (HT-29, 1.0 mM). For the same molecule, the “Extracellular pH, Normoxic condition” value with MDA-MB-231 cells [3] (MDA-MB-231, 0.1 mM) was 7.05; in the experiment on MDA-MB-231 cells [3] (MDA-MB-231, 1.0 mM), 7.23; with HT-29 cells [4] (HT-29, 0.1 mM), 6.97; in the experiment with HT-29 cells [4] (HT-29, 1.0 mM), 7.26.

Take `COc1cc(-c2cn(-c3ccc(S(N)(=O)=O)cc3)nn2)ccc1NC(=O)CCCC(=O)N[C@@H]1O[C@H](CO)[C@@H](O)[C@H](O)[C@H]1O` [Compound 16m, N^1-(2-methoxy-4-(1-(4-sulfamoylphenyl)-1H-1,2,3-triazol-4-yl)phenyl)-N^5-((2R,3R,4S,5S,6R)-3,4,5-trihydroxy-6-(hydroxymethyl)tetrahydro-2H-pyran-2-yl)glutaramide]: the results for the IC50 at hCA II, against hCA IX and against hCA XII were 88.1 nM, 99.6 nM and 146 nM, respectively.

In the case of `NS(=O)(=O)c1ccc(-n2cc(-c3cccc(NC(=O)CCC(=O)N[C@@H]4O[C@H](CO)[C@@H](O)[C@H](O)[C@H]4O)c3)nn2)cc1` [Compound 16b, N^1-(3-(1-(4-sulfamoylphenyl)-1H-1,2,3-triazol-4-yl)phenyl)-N^4-((2R,3R,4S,5S,6R)-3,4,5-trihydroxy-6-(hydroxymethyl)tetrahydro-2H-pyran-2-yl)succinamide], the IC50 at hCA II came to 13.3 nM; against hCA IX, 86.6 nM; on hCA XII it was 256 nM. Further, the “decrease in cell viability” value in the experiment with HT-29 cells [1] turned out to be 20%. The viability at 400 µM in the experiment with HT-29 cells [1] (setting [6]) was 81.1 ± 2.43%; in the experiment on HT-29 cells [1] (setting [7]), 89.67 ± 0.554%; with MDA-MB-231 cells [2] (setting [6]), 86.5 ± 1.92%; with MDA-MB-231 cells [2] (setting [7]) it was 90.5 ± 0.965%. Moreover, the values for the viability at 800 µM in the experiment on MG-63 cells (setting [6]) and in the experiment on MG-63 cells (setting [7]) were 76.6 ± 3.51% and 81.6 ± 3.34%, respectively. In addition, the “inhibition of MG-63 cell viability” value in the experiment on MG-63 cells (MG-63, normoxia and hypoxia) was “concentration-dependent”. The “effect on extracellular pH” value with MDA-MB-231 cells [3] and in the experiment on HT-29 cells [4] was “improve the extracellular pH” in each case. For the same molecule, the “Extracellular pH, Hypoxic condition” value came to 6.88 in the experiment with MDA-MB-231 cells [3] (MDA-MB-231, 0.1 mM); 7.20 in the experiment on MDA-MB-231 cells [3] (MDA-MB-231, 1.0 mM); 6.82 in the experiment on HT-29 cells [4] (HT-29, 0.1 mM); 7.27 with HT-29 cells [4] (HT-29, 1.0 mM). Also, the “Extracellular pH, Normoxic condition” value in the experiment on MDA-MB-231 cells [3] (MDA-MB-231, 0.1 mM) came to 7.02; in the experiment with MDA-MB-231 cells [3] (MDA-MB-231, 1.0 mM) it was 7.20; in the experiment on HT-29 cells [4] (HT-29, 0.1 mM), 6.96; with HT-29 cells [4] (HT-29, 1.0 mM), 7.15.

With `Cc1cc(-c2cn(-c3ccc(S(N)(=O)=O)cc3)nn2)ccc1NC(=O)CCC(=O)N[C@@H]1O[C@H](CO)[C@@H](O)[C@H](O)[C@H]1O` [Compound 16e, N^1-(2-methyl-4-(1-(4-sulfamoylphenyl)-1H-1,2,3-triazol-4-yl)phenyl)-N^4-((2R,3R,4S,5S,6R)-3,4,5-trihydroxy-6-(hydroxymethyl)tetrahydro-2H-pyran-2-yl)succinamide], the IC50 against hCA II worked out at 41.6 nM; against hCA IX, 84.7 nM; at hCA XII, 162 nM. Besides, the viability at 400 µM came out at 87.7 ± 1.79% with HT-29 cells [1] (setting [6]), 91.5 ± 2.64% in the experiment on HT-29 cells [1] (setting [7]), 90.6 ± 2.76% with MDA-MB-231 cells [2] (setting [6]) and 87.2 ± 2.28% in the experiment on MDA-MB-231 cells [2] (setting [7]).

Broadly, the IC50 is the concentration needed to halve the response being measured. A high value points to weaker potency in that assay. What is called viability is the share of living cells, or the viability signal relative to a control.
